In PubChem BioAssay (NCI):
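Briefly, cells in 96-well plates were exposed to five compound concentrations for 48 h, and endpoints were estimated by linear interpolation. The concentration for full growth arrest is given as TGI.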

What was measured:
Assay in all cases: NCI tumour cell line growth inhibition, 48 h
XF 498 CNS = test system: XF 498 CNS
SF-295 CNS = test system: SF-295 CNS
UACC-62 melanoma = test system: UACC-62 melanoma
K-562 leukemia = test system: K-562 leukemia
CAKI-1 renal = test system: CAKI-1 renal
SR leukemia = test system: SR leukemia
NCI-H226 lung = test system: NCI-H226 lung
COLO 205 colon = test system: COLO 205 colon
HOP-92 NSCLC = test system: HOP-92 NSCLC
OVCAR-3 ovarian = test system: OVCAR-3 ovarian
SK-MEL-5 melanoma = test system: SK-MEL-5 melanoma
MOLT-4 leukemia = test system: MOLT-4 leukemia
KM12 colon = test system: KM12 colon
SF-539 CNS = test system: SF-539 CNS
SNB-19 CNS = test system: SNB-19 CNS
KM20L2 colon = test system: KM20L2 colon
HCT-116 colon = test system: HCT-116 colon
TK-10 renal = test system: TK-10 renal
HOP-62 NSCLC = test system: HOP-62 NSCLC
LOX IMVI melanoma = test system: LOX IMVI melanoma
DMS 114 small cell lung = test system: DMS 114 small cell lung
LXFL 529 NSCLC = test system: LXFL 529 NSCLC
A498 renal = test system: A498 renal
SF-268 CNS = test system: SF-268 CNS
SK-MEL-28 melanoma = test system: SK-MEL-28 melanoma
OVCAR-8 ovarian = test system: OVCAR-8 ovarian
OVCAR-5 ovarian = test system: OVCAR-5 ovarian
UO-31 renal = test system: UO-31 renal
NCI-H522 lung = test system: NCI-H522 lung
RXF-631 renal = test system: RXF-631 renal
U251 CNS = test system: U251 CNS
SNB-75 CNS = test system: SNB-75 CNS
OVCAR-4 ovarian = test system: OVCAR-4 ovarian
DMS 273 small cell lung = test system: DMS 273 small cell lung
A549 NSCLC = test system: A549 NSCLC
UACC-257 melanoma = test system: UACC-257 melanoma
NCI-H460 lung = test system: NCI-H460 lung
M19-MEL melanoma = test system: M19-MEL melanoma
SN12C renal = test system: SN12C renal
HL-60(TB) leukemia = test system: HL-60(TB) leukemia
EKVX NSCLC = test system: EKVX NSCLC
HT29 colon = test system: HT29 colon
CCRF-CEM leukemia = test system: CCRF-CEM leukemia
RPMI-8226 leukemia = test system: RPMI-8226 leukemia
HCT-15 colon = test system: HCT-15 colon
MALME-3M melanoma = test system: MALME-3M melanoma
DLD-1 colon = test system: DLD-1 colon
HCC-2998 colon = test system: HCC-2998 colon
RXF 393 renal = test system: RXF 393 renal
SNB-78 CNS = test system: SNB-78 CNS
SW-620 colon = test system: SW-620 colon
786-0 renal = test system: 786-0 renal
NCI-H23 lung = test system: NCI-H23 lung
ACHN renal = test system: ACHN renal
SK-OV-3 ovarian = test system: SK-OV-3 ovarian
M14 melanoma = test system: M14 melanoma
IGROV1 ovarian = test system: IGROV1 ovarian
SK-MEL-2 melanoma = test system: SK-MEL-2 melanoma
HOP-18 NSCLC = test system: HOP-18 NSCLC

`C=C(C(=C)P(=S)(C(C)C)C(C)C)P(=S)(C(C)C)C(C)C` was tested, and the TGI (XF 498 CNS) was greater than 100 µM, the TGI (SF-295 CNS) was greater than 100 µM and the TGI (UACC-62 melanoma) was greater than 100 µM. It also gave a TGI (K-562 leukemia) greater than 100 µM, a TGI (CAKI-1 renal) greater than 100 µM and a TGI (SR leukemia) greater than 100 µM. For the same molecule, the TGI (NCI-H226 lung) was greater than 100 µM, the TGI (COLO 205 colon) was greater than 100 µM and the TGI (HOP-92 NSCLC) was greater than 100 µM. It also gave a TGI (OVCAR-3 ovarian) greater than 100 µM, a TGI (SK-MEL-5 melanoma) greater than 100 µM and a TGI (MOLT-4 leukemia) greater than 100 µM. It also gave a TGI (KM12 colon) greater than 100 µM, a TGI (SF-539 CNS) greater than 100 µM and a TGI (SNB-19 CNS) greater than 100 µM. For the same molecule, the TGI (KM20L2 colon) was greater than 100 µM, the TGI (HCT-116 colon) was greater than 100 µM and the TGI (TK-10 renal) was greater than 100 µM. The TGI (HOP-62 NSCLC) was greater than 100 µM, the TGI (LOX IMVI melanoma) was greater than 100 µM and the TGI (DMS 114 small cell lung) was greater than 100 µM. It also gave a TGI (LXFL 529 NSCLC) greater than 100 µM, a TGI (A498 renal) greater than 100 µM and a TGI (SF-268 CNS) greater than 100 µM. For the same molecule, the TGI (SK-MEL-28 melanoma) was greater than 100 µM, the TGI (OVCAR-8 ovarian) was greater than 100 µM and the TGI (OVCAR-5 ovarian) was greater than 100 µM. It also gave a TGI (UO-31 renal) greater than 100 µM, a TGI (NCI-H522 lung) greater than 100 µM and a TGI (RXF-631 renal) greater than 100 µM. It also gave a TGI (U251 CNS) greater than 100 µM, a TGI (SNB-75 CNS) greater than 100 µM and a TGI (OVCAR-4 ovarian) greater than 100 µM. For the same molecule, the TGI (DMS 273 small cell lung) was greater than 100 µM, the TGI (A549 NSCLC) was greater than 100 µM and the TGI (UACC-257 melanoma) was greater than 100 µM. It also gave a TGI (NCI-H460 lung) greater than 100 µM, a TGI (M19-MEL melanoma) greater than 100 µM and a TGI (SN12C renal) greater than 100 µM. It also gave a TGI (HL-60(TB) leukemia) greater than 100 µM, a TGI (EKVX NSCLC) greater than 100 µM and a TGI (HT29 colon) greater than 100 µM. For the same molecule, the TGI (CCRF-CEM leukemia) was greater than 100 µM, the TGI (RPMI-8226 leukemia) was greater than 100 µM and the TGI (HCT-15 colon) was greater than 100 µM. The TGI (MALME-3M melanoma) was greater than 100 µM, the TGI (DLD-1 colon) was greater than 100 µM and the TGI (HCC-2998 colon) was greater than 100 µM. The TGI (RXF 393 renal) was greater than 100 µM, the TGI (SNB-78 CNS) was greater than 100 µM and the TGI (SW-620 colon) was greater than 100 µM. For the same molecule, the TGI (786-0 renal) was greater than 100 µM, the TGI (NCI-H23 lung) was greater than 100 µM and the TGI (ACHN renal) was greater than 100 µM. For the same molecule, the TGI (SK-OV-3 ovarian) was greater than 100 µM, the TGI (M14 melanoma) was greater than 100 µM and the TGI (IGROV1 ovarian) was greater than 100 µM.
In the case of `C=C=CC(NC(=O)c1ccccc1)(C(=O)O)C(F)(F)F` (stereo not drawn), the TGI (XF 498 CNS) is reported as greater than 100 µM, the TGI (SF-295 CNS) is reported as greater than 100 µM and the TGI (K-562 leukemia) is reported as greater than 100 µM. For the same molecule, the TGI (SR leukemia) was greater than 100 µM, the TGI (NCI-H226 lung) was greater than 100 µM and the TGI (COLO 205 colon) was greater than 100 µM. For the same molecule, the TGI (HOP-92 NSCLC) was greater than 100 µM, the TGI (SK-MEL-5 melanoma) was greater than 100 µM and the TGI (MOLT-4 leukemia) was greater than 100 µM. It also gave a TGI (KM12 colon) greater than 100 µM, a TGI (SK-MEL-2 melanoma) greater than 100 µM and a TGI (SF-539 CNS) greater than 100 µM. The TGI (SNB-19 CNS) was greater than 100 µM, the TGI (HCT-116 colon) was greater than 100 µM and the TGI (TK-10 renal) was greater than 100 µM. It also gave a TGI (LOX IMVI melanoma) greater than 100 µM, a TGI (DMS 114 small cell lung) greater than 100 µM and a TGI (LXFL 529 NSCLC) greater than 100 µM. The TGI (A498 renal) was greater than 100 µM, the TGI (SF-268 CNS) was greater than 100 µM and the TGI (SK-MEL-28 melanoma) was greater than 100 µM. The TGI (OVCAR-8 ovarian) was greater than 100 µM, the TGI (OVCAR-5 ovarian) was greater than 100 µM and the TGI (RXF-631 renal) was greater than 100 µM. For the same molecule, the TGI (U251 CNS) was greater than 100 µM, the TGI (SNB-75 CNS) was greater than 100 µM and the TGI (HOP-18 NSCLC) was greater than 100 µM. The TGI (DMS 273 small cell lung) was greater than 100 µM, the TGI (A549 NSCLC) was greater than 100 µM and the TGI (UACC-257 melanoma) was greater than 100 µM. It also gave a TGI (NCI-H460 lung) greater than 100 µM, a TGI (SN12C renal) greater than 100 µM and a TGI (HL-60(TB) leukemia) greater than 100 µM. It also gave a TGI (EKVX NSCLC) greater than 100 µM, a TGI (HT29 colon) greater than 100 µM and a TGI (CCRF-CEM leukemia) greater than 100 µM. The TGI (RPMI-8226 leukemia) was greater than 100 µM, the TGI (HCT-15 colon) was greater than 100 µM and the TGI (MALME-3M melanoma) was greater than 100 µM. It also gave a TGI (DLD-1 colon) greater than 100 µM, a TGI (HCC-2998 colon) greater than 100 µM and a TGI (RXF 393 renal) greater than 100 µM. The TGI (SNB-78 CNS) was greater than 100 µM, the TGI (SW-620 colon) was greater than 100 µM and the TGI (NCI-H23 lung) was greater than 100 µM. The TGI (ACHN renal) was greater than 100 µM, the TGI (M14 melanoma) was greater than 100 µM and the TGI (IGROV1 ovarian) was greater than 100 µM.
`O=c1cccc(-c2cccc(=O)[nH]2)[nH]1` showed a TGI (SF-295 CNS) greater than 100 µM, a TGI (UACC-62 melanoma) greater than 100 µM and a TGI (K-562 leukemia) greater than 100 µM. It also gave a TGI (CAKI-1 renal) greater than 100 µM, a TGI (NCI-H226 lung) greater than 100 µM and a TGI (COLO 205 colon) greater than 100 µM. The TGI (HOP-92 NSCLC) was 96.5 µM, the TGI (OVCAR-3 ovarian) was greater than 100 µM and the TGI (SK-MEL-5 melanoma) was greater than 100 µM. The TGI (MOLT-4 leukemia) was greater than 100 µM, the TGI (KM12 colon) was greater than 100 µM and the TGI (SF-539 CNS) was greater than 100 µM. For the same molecule, the TGI (HCT-116 colon) was greater than 100 µM, the TGI (TK-10 renal) was greater than 100 µM and the TGI (LOX IMVI melanoma) was greater than 100 µM. The TGI (DMS 114 small cell lung) was greater than 100 µM, the TGI (LXFL 529 NSCLC) was greater than 100 µM and the TGI (SK-MEL-28 melanoma) was greater than 100 µM. It also gave a TGI (OVCAR-8 ovarian) greater than 100 µM, a TGI (UO-31 renal) greater than 100 µM and a TGI (RXF-631 renal) greater than 100 µM. It also gave a TGI (U251 CNS) greater than 100 µM, a TGI (SNB-75 CNS) greater than 100 µM and a TGI (HOP-18 NSCLC) greater than 100 µM. The TGI (DMS 273 small cell lung) was greater than 100 µM, the TGI (A549 NSCLC) was greater than 100 µM and the TGI (UACC-257 melanoma) was greater than 100 µM. It also gave a TGI (NCI-H460 lung) greater than 100 µM, a TGI (M19-MEL melanoma) greater than 100 µM and a TGI (SN12C renal) greater than 100 µM. The TGI (HL-60(TB) leukemia) was greater than 100 µM, the TGI (EKVX NSCLC) was greater than 100 µM and the TGI (HT29 colon) was greater than 100 µM. It also gave a TGI (CCRF-CEM leukemia) greater than 100 µM, a TGI (RPMI-8226 leukemia) greater than 100 µM and a TGI (HCT-15 colon) greater than 100 µM. The TGI (MALME-3M melanoma) was greater than 100 µM, the TGI (DLD-1 colon) was greater than 100 µM and the TGI (HCC-2998 colon) was greater than 100 µM. The TGI (RXF 393 renal) was greater than 100 µM, the TGI (SNB-78 CNS) was greater than 100 µM and the TGI (SW-620 colon) was greater than 100 µM. The TGI (786-0 renal) was greater than 100 µM, the TGI (NCI-H23 lung) was greater than 100 µM and the TGI (ACHN renal) was greater than 100 µM. It also gave a TGI (SK-OV-3 ovarian) greater than 100 µM, a TGI (M14 melanoma) greater than 100 µM and a TGI (IGROV1 ovarian) greater than 100 µM.
